According to article PMC4412158 (Nature chemical biology, 2014):

Target: T1, phosphoglycerate kinase 1 (hPGK1) (Homo sapiens, UniProt P00558)
T1 sequence (P00558 2-417): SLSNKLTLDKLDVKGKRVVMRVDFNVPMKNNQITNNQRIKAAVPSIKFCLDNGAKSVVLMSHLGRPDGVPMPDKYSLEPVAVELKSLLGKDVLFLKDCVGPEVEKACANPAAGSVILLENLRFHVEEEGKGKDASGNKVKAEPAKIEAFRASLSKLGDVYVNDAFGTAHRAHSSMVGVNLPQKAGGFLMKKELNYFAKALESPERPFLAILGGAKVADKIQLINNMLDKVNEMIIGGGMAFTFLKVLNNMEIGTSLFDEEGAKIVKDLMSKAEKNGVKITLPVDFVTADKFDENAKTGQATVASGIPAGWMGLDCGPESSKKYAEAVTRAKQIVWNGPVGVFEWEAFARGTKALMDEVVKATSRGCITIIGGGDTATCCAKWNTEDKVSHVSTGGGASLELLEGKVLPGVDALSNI
Assay: co-crystal structure hPGK1-3PG-TZ at […] Å
Assay type: binding

COc1cc2nc(N3CCN(C(=O)C4CCCO4)CC3)nc(N)c2cc1OC (racemic) [TZ, terazosin]
co-crystal structure hPGK1-3PG-TZ at 2.1 Å: we obtained the ternary co-crystallization complexes for both the mouse and the human Pgk1-3PG-TZ
